Test results: article PMC6792352, “Limited Chemical Structural Diversity Found to Modulate Thyroid Hormone Receptor in the Tox21 Chemical Library” (Environmental Health Perspectives, 2019)
Structures can show the parent of a compound that is named as a salt.

Experiment: in vitro
Conditions: rat, gh3-tre-luc cells

Structure (SMILES)	CC50 at 24 h (AC50 (uM) modified / 1000) [µM]	further results
O=c1[nH]c(=O)[nH]c(=O)[nH]1 [Cyanuric acid]	> 90	–
Cc1ccc(-c2c(Cl)nc(C#N)n2S(=O)(=O)N(C)C)cc1 [Cyazofamid]	40.3	–
CSc1nc(NC2CC2)nc(NC(C)(C)C)n1 [Cybutryne]	> 90	–
CC1(C)S[C@@H]2[C@H](NC(=O)C3(N)CCCCC3)C(=O)N2[C@H]1C(=O)O [Cyclacillin]	> 50	–
CC(C=O)Cc1ccc(C(C)C)cc1 (stereo not drawn) [Cyclamen aldehyde]	> 90	–
CC1CC(OC(=O)C(O)c2ccccc2)CC(C)(C)C1 (stereo not drawn) [Cyclandelate]	> 50	–
O=C(O)C1(C(=O)Nc2ccc(Cl)cc2Cl)CC1 [Cyclanilide]	> 90	–
CN1CCN(C(c2ccccc2)c2ccccc2)CC1 [Cyclizine hydrochloride]	> 20	–
CCSC(=O)N(CC)C1CCCCC1 [Cycloate]	> 90	–
CN(C)CCC=C1c2ccccc2C=Cc2ccccc21 [Cyclobenzaprine hydrochloride]	14.5	–
O=C(c1ccccc1)C1CCC1 [Cyclobutyl phenyl ketone]	> 90	–
C1CCCCCCCCCCC1 [Cyclododecane]	> 20	–
OC1CCCCCCCCCCC1 [Cyclododecanol]	> 90	–
O=C1CCCCCCCCCCC1 [Cyclododecanone]	> 90	–
CC(=O)Oc1ccc(C(=C2CCCCC2)c2ccc(OC(C)=O)cc2)cc1 [Cyclofenil]	> 50	–
CC1(C)N=C(N)N=C(N)N1c1ccc(Cl)cc1 [Cycloguanil hydrochloride]	> 50	–
OCC1CC=CCC1 (stereo not drawn) [Cyclohex-3-en-1-ylmethanol]	> 90	–
C1CCCCC1 [Cyclohexane]	> 90	–
SC1CCCCC1 [Cyclohexanethiol]	> 100	–
OC1CCCCC1 [Cyclohexanol]	> 100	–
N#CC1(O)CCCCC1 [Cyclohexanone cyanohydrin]	> 90	–
ON=C1CCCCC1 [Cyclohexanone oxime]	> 90	–
CC(=O)C1CCCCC1=O (stereo not drawn) [Cyclohexanone,2-acetyl-]	> 90	–
O=C1CCCCC1 [Cyclohexanone]	> 100	–

Structure (SMILES)	CC50 at 24 h (AC50 (uM) modified / 1000) [µM]	further results
C1CCC2OC2C1 (stereo not drawn) [Cyclohexene oxide]	> 100	–
NC1CCCCC1 [Cyclohexylamine hydrochloride]	> 90	–
O=C(c1ccccc1)C1CCCCC1 [Cyclohexylphenylketone]	> 90	–
CC1=C2C[C@H]3[C@@H](CC=C4C[C@@H](O)CC[C@@]43C)[C@@H]2CC[C@]12O[C@@H]1C[C@H](C)CN[C@H]1[C@H]2C [Cyclopamine]	5.73	–
O=C1CCCCCCCCCCCCCC1 [Cyclopentadecanone]	60.9	–
C1CCCC1 [Cyclopentane]	> 90	–
SC1CCCC1 [Cyclopentanethiol]	> 90	–
OC1CCCC1 [Cyclopentanol]	> 90	–
ON=C1CCCC1 [Cyclopentanone oxime]	> 90	–
O=C1CCCC1 [Cyclopentanone]	> 90	–
NS(=O)(=O)c1cc2c(cc1Cl)NC(CC1CCCC1)NS2(=O)=O (stereo not drawn) [Cyclopenthiazide]	> 20	–
CN(C)CCOC(=O)C(c1ccccc1)C1(O)CCCC1 (stereo not drawn) [Cyclopentolate hydrochloride]	> 50	–
O=P1(N(CCCl)CCCl)NCCCO1 (stereo not drawn) [Cyclophosphamide monohydrate]	> 90	–
N[C@@H]1CON=C1O [Cycloserine]	> 50	–
NS(=O)(=O)c1cc2c(cc1Cl)NC(C1CC3C=CC1C3)NS2(=O)=O (stereo not drawn) [Cyclothiazide]	> 50	–
COc1cc(/C=C2\CCC/C(=C\c3ccc(O)c(OC)c3)C2=O)ccc1O [Cyclovalone]	7.98	–
CC1(C)C(C=C(Cl)Cl)[C@@H]1C(=O)O[C@@H](C#N)c1ccc(F)c(Oc2ccccc2)c1 (stereo partly drawn) [Cyfluthrin]	> 90	–
CCCCOC(=O)[C@@H](C)Oc1ccc(Oc2ccc(C#N)cc2F)cc1 [Cyhalofop-butyl]	–	CC50 at 24 h (AC50 (uM) modified / 1000, Tox21_110001=Tox21_301029, viability, 1 nM T3 present, 24 h): > 90 µM
NC(=O)C1c2ccccc2CCc2ccccc21 [Cyheptamide]	> 50	–
CCNC(=O)NC(=O)/C(C#N)=N/OC [Cymoxanil]	> 90	–
CC1(C)[C@H](C=C(Cl)Cl)[C@H]1C(=O)O[C@H](C#N)c1cccc(Oc2ccccc2)c1 [Cypermethrin]	> 50	–
CC(C)=CC1C(C(=O)OC(C#N)c2cccc(Oc3ccccc3)c2)C1(C)C (stereo not drawn) [Cyphenothrin]	> 90	–
CC(C1CC1)C(O)(Cn1cncn1)c1ccc(Cl)cc1 (stereo not drawn) [Cyproconazole]	> 90	–
Cc1cc(C2CC2)nc(Nc2ccccc2)n1 [Cyprodinil]	74.9	–

Structure (SMILES)	CC50 at 24 h (AC50 (uM) modified / 1000) [µM]	further results
CN1CCC(=C2c3ccccc3C=Cc3ccccc32)CC1 [Cyproheptadine]	12.2	–
O=C(Nc1ccc(Cl)c(Cl)c1)C1CC1 [Cypromid]	> 50	–
CC(=O)O[C@]1(C(C)=O)CC[C@H]2[C@@H]3C=C(Cl)C4=CC(=O)[C@@H]5C[C@@H]5[C@]4(C)[C@H]3CC[C@@]21C [Cyproterone acetate]	66.8	–
CC(=O)[C@@]1(O)CC[C@H]2[C@@H]3C=C(Cl)C4=CC(=O)[C@@H]5C[C@@H]5[C@]4(C)[C@H]3CC[C@@]21C [Cyproterone]	> 50	–
Nc1nc(N)nc(NC2CC2)n1 [Cyromazine]	> 90	–
NCCS [Cysteamine hydrochloride]	> 50	–
COc1ccc(C(=O)/C(Br)=C\C(=O)O)cc1 [Cytembena]	44	–
COP(=S)(OC)Oc1ccc(S(N)(=O)=O)cc1 [Cythioate]	–	CC50 at 24 h (AC50 (uM) modified / 1000, Tox21_110001=Tox21_113080, viability, 1 nM T3 present, 24 h): > 50 µM
Nc1cc[nH]c(=O)n1 [Cytosine]	> 90	–
O=C1c2ccccc2C(=O)C1c1ccc2ccccc2n1 [D & C Yellow 11]	> 50	–
O=c1c2ccccc2c(=O)c2c1cc(Cl)c1[nH]c3c([nH]c12)c(Cl)cc1c(=O)c2ccccc2c(=O)c13 [D&C Blue No. 9]	–	CC50 at 24 h (AC50 (uM) modified / 1000, Tox21_110001=Tox21_302231, viability, 1 nM T3 present, 24 h): > 90 µM
Cc1ccc(N=Nc2c(O)c(C(=O)O)cc3ccccc23)c(S(=O)(=O)O)c1 [D&C Red No. 7]	27.6	–
Cc1ccc(Nc2ccc(O)c3c2C(=O)c2ccccc2C3=O)cc1 [D&C Violet 2]	> 90	–
O=C(O)[C@H](O)c1ccccc1 [D-(-)-Mandelic acid]	> 50	–
C[C@@H](N)C(=O)O [D-Alanine]	> 50	–
[2H]C([2H])([2H])[C@H](N)Cc1ccccc1 [D-Amphetamine-d3 hemisulfate]	> 50	–
OC[C@@H](O)C(O)[C@H](O)CO [D-Arabinitol]	> 50	–
NC(=O)C[C@@H](N)C(=O)O [D-Asparagine hydrate]	> 50	–
N[C@H](CC(=O)O)C(=O)O [D-Aspartic acid]	> 50	–
CC1(C)[C@@H]2CC[C@@]1(C)C(=O)C2 [D-Camphor]	> 90	–
O=C(COP(=O)(O)O)[C@@H](O)[C@H](O)[C@H](O)COP(=O)(O)O [D-Fructose 1,6-bisphosphate trisodium]	> 50	–
OCC1(O)OC[C@@H](O)[C@@H](O)[C@@H]1O (stereo partly drawn) [D-Fructose]	> 50	–
OC[C@@H](O)[C@H](O)[C@H](O)[C@@H](O)CO [D-Galactitol]	> 50	–
OC[C@@H](O)[C@@H](O)[C@H](O)[C@@H](O)CO [D-Glucitol]	> 90	–
